Biological target: T1, histamine 3 receptor (H3R) (Homo sapiens, UniProt Q9Y5N1)
T1 construct: expressed in transfected cells; host or cells: CHO cells (HR3-CHO cell line), membranes
Assay: Competition binding assay with 3H-(R)α-methylhistamine on membranes of the human HR3-CHO cell line
Conditions: membrane of human HR3-CHO cell line; 3H(R)α-Methylhistamine 1 nM; Ki calculated from IC50 by Cheng-Prusoff equation
Protocol: Binding Assay with ^3H-(R)α-methylhistamine
Saturation binding experiments were performed using HR3-CHO membranes prepared as described in Takahashi, K, Tokita, S., Kotani, H. (2003) J. Pharmacol. Exp. Therapeutics 307, 213-218.
An appropriate amount of membrane (60 to 80 μg protein/well) was incubated with increasing concentrations of ^3H(R)α-Methylhistamine di-hydrochloride (0.10 to 10 nM). Non specific binding was determined using a 200 fold excess of cold (R)α-Methylhistamine dihydrobromide (500 nM final concentration). The incubation was carried out at room temperature (in deep-well plates shaking for three hours). The final volume in each well was 250 μl. The incubation was followed by rapid filtration on GF/B filters (pre-soaked with 100 μl of 0.5% PEI in Tris 50 mM shaking at 200 rpm for two hours). The filtration was made using a cell-harvester and the filter plates were then washed five times with ice cold washing buffer containing 0.5 M NaCl. After harvesting, the plates were dried at 55° C. for 60 min, then we added scintillation fluid (Microscint 40, 40 microl in each well) and the amount of radioactivity on the filter was determined in Packard top-counter after shaking the plates for two hours at 200 rpm at room temperature.
Binding Buffer: 50 mM Tris-HCl pH 7.4 and 5 mM MgCl2×6H2O pH 7.4. Washing Buffer: 50 mM Tris-HCl pH 7.4 and 5 mM MgCl2×6H2O and 0.5 M NaCl pH 7.4.
Indirect measurement of affinity of H3R inverse agonists: twelve increasing concentrations (ranging from 10 μM to 0.3 nM) of the selected compounds were always tested in competition binding experiments using membrane of the human HR3-CHO cell line. An appropriate amount of protein, e.g. approximately 500 cpm binding of RAMH at Kd, were incubated for 1 hour at room temperature in 250 μl final volume in 96-well plates in presence of ^3H(R)α-Methylhistamine (1 nM final concentration=Kd). Non-specific binding was determined using a 200 fold excess of cold (R)α-Methylhistamine dihydrobromide.
All compounds were tested at a single concentration in duplicates.

T1 sequence (Q9Y5N1 whole entry): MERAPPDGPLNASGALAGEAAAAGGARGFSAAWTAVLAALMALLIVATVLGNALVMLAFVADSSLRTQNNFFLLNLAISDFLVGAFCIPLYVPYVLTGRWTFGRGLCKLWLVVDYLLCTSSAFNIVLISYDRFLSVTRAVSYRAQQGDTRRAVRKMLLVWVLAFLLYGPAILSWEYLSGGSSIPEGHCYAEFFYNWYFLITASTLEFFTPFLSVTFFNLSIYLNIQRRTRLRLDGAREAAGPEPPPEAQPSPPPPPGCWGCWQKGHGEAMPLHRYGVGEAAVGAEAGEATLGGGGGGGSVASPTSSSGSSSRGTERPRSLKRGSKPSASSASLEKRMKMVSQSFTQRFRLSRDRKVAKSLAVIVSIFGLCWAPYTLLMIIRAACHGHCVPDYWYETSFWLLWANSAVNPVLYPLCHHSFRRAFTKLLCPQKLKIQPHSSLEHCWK

Row | SMILES | Ki [nM]
1 | O=C(c1cc2cc(OCCCN3CCCC3)cnc2[nH]1)N1CCOCC1 [Example 5, Morpholin-4-yl-[5-(3-pyrrolidin-1-yl-propoxy)-1H-pyrrolo[2,3-b]pyridin-2-yl]-methanone] | 25.5
2 | CC(C)N1CCC(Oc2cnc3[nH]c(C(=O)N4CCC(F)(F)CC4)cc3c2)CC1 [Example 13, (4,4-Difluoro-piperidin-1-yl)-[5-(1-isopropyl-piperidin-4-yloxy)-1H-pyrrolo[2,3-b]pyridin-2-yl]-methanone] | 28.9
3 | CC(C)N1CCC(Oc2cnc3c(c2)cc(C(=O)N2CCC(F)(F)CC2)n3C(C)C)CC1 [Example 22, (4,4-Difluoro-piperidin-1-yl)-[1-isopropyl-5-(1-isopropyl-piperidin-4-yloxy)-1H-pyrrolo[2,3-b]pyridin-2-yl]-methanone] | 9.4
